Assay results from PubChem BioAssay AID256 (DTP/NCI, 2004).
Where “and” joins values, the source holds several entries; their conditions need not be identical. Identical values can stand only once. Inconclusive results and toxic doses are left out.

System: CD2F1 mice, L1210 leukemia ip, survival T/C
Test: NCI In Vivo Anticancer Drug Screen. Data for tumor model L1210 Leukemia (intraperitoneal) in CD2F1 (CDF1) mice
Conditions: higher = longer survival
How it was run: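 Vehicle-treated tumor-bearing mice served as controls (C) for compound-treated mice (T). Reported figure is T divided by C.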

[1] = endpoint: mean survival time, dose: 100.0 mg/kg/injection, schedule: Q04DX003 (ip), vehicle: saline
[2] = endpoint: mean survival time, dose: 200.0 mg/kg/injection, schedule: Q04DX003 (ip), vehicle: saline
[3] = endpoint: mean survival time, dose: 100.0 mg/kg/injection, schedule: Q01DX001 (ip), vehicle: saline with Tween-80
[4] = endpoint: mean survival time, dose: 100.0 mg/kg/injection, schedule: Q04DX003 (ip), vehicle: saline with Tween-80
[5] = endpoint: mean survival time, dose: 200.0 mg/kg/injection, schedule: Q01DX001 (ip), vehicle: saline with Tween-80
[6] = endpoint: mean survival time, dose: 200.0 mg/kg/injection, schedule: Q04DX003 (ip), vehicle: saline with Tween-80
[7] = endpoint: mean survival time, dose: 400.0 mg/kg/injection, schedule: Q01DX001 (ip), vehicle: saline with Tween-80
[8] = endpoint: mean survival time, dose: 400.0 mg/kg/injection, schedule: Q04DX003 (ip), vehicle: saline with Tween-80
[9] = endpoint: mean survival time, dose: 100.0 mg/kg/injection, schedule: Q01DX009 (ip), vehicle: saline with Tween-80
[10] = endpoint: mean survival time, dose: 200.0 mg/kg/injection, schedule: Q01DX009 (ip), vehicle: saline with Tween-80
[11] = endpoint: mean survival time, dose: 400.0 mg/kg/injection, schedule: Q01DX009 (ip), vehicle: saline with Tween-80
[12] = endpoint: mean survival time, dose: 25.0 mg/kg/injection, schedule: Q04DX002 (ip), vehicle: saline with Tween-80

C[n+]1ccc(Nc2ccc(NC(=O)c3ccc(Nc4cc[n+](C)c5ccc(N)cc45)cc3N)cc2)cc1
T/C (endpoint: mean survival time, dose: 2.0 mg/kg/injection, schedule: Q01DX009 (ip), vehicle: water): 205 % of control
T/C (endpoint: mean survival time, dose: 4.0 mg/kg/injection, schedule: Q01DX009 (ip), vehicle: water): 316 % of control

Cc1cc(NCCCCCCCCNc2cc(C)nc3cc(N(C)C)ccc23)c2ccc(N(C)C)cc2n1
T/C (endpoint: median survival time, dose: 1.57 mg/kg/injection, schedule: Q01DX009 (ip), vehicle: distilled water + Tween-80 + alcohol): 108 % of control
T/C (endpoint: median survival time, dose: 3.12 mg/kg/injection, schedule: Q01DX009 (ip), vehicle: distilled water + Tween-80 + alcohol): 118 % of control
T/C (endpoint: median survival time, dose: 3.12 mg/kg/injection, schedule: Q01DX009 (ip), vehicle: distilled water + Tween-80): 115 % of control
T/C (endpoint: median survival time, dose: 6.25 mg/kg/injection, schedule: Q01DX009 (ip), vehicle: distilled water + Tween-80): 123 % of control
T/C (endpoint: median survival time, dose: 12.5 mg/kg/injection, schedule: Q01DX009 (ip), vehicle: distilled water + Tween-80): 123 % of control

Cc1cccc[n+]1CCCS(=O)(=O)[O-]
T/C [1]: 104 % of control
T/C [2]: 102 % of control
T/C (endpoint: mean survival time, dose: 400.0 mg/kg/injection, schedule: Q04DX003 (ip), vehicle: saline): 101 % of control

O=C(COC(=O)C1CCCCCCC1)c1ccc(Br)cc1
T/C [3]: 100 % of control
T/C [4]: 94 % of control
T/C [5]: 107 % of control
T/C [6]: 96 % of control
T/C [7]: 97 % of control
T/C [8]: 97 % of control

CC1CC1C(=O)O (stereo unspecified)
T/C [1]: 102 % of control
T/C [2]: 102 % of control

CN(C)c1ccc(/C=N/NC(=O)c2ccccc2N)cc1
T/C [9]: 92 % of control
T/C [10]: 91 % of control
T/C [11]: 91 % of control

CN1C2CCC1C(Br)C(=O)C2 (stereo unspecified)
T/C (endpoint: median survival time, dose: 25.0 mg/kg/injection, schedule: Q01DX009 (ip), vehicle: saline): 102 % of control
T/C (endpoint: median survival time, dose: 50.0 mg/kg/injection, schedule: Q01DX009 (ip), vehicle: saline): 105 % of control
T/C (endpoint: median survival time, dose: 100.0 mg/kg/injection, schedule: Q01DX009 (ip), vehicle: saline): 105 % of control
T/C (endpoint: median survival time, dose: 200.0 mg/kg/injection, schedule: Q01DX009 (ip), vehicle: saline): 101 % of control

COC12C(COC(N)=O)C3=C(C(=O)C(C)=C(N4CCN(C)CC4)C3=O)N1CC1NC12 (stereo unspecified)
T/C (endpoint: median survival time, dose: 1.5 mg/kg/injection, schedule: Q01DX001 (ip), vehicle: water): 155 % of control
T/C (endpoint: median survival time, dose: 3.0 mg/kg/injection, schedule: Q01DX001 (ip), vehicle: water): 124 % of control
T/C (endpoint: median survival time, dose: 6.0 mg/kg/injection, schedule: Q01DX001 (ip), vehicle: water): 87 % of control
T/C (endpoint: median survival time, dose: 375.0 micrograms/kg/injection, schedule: Q01DX001 (ip), vehicle: water): 102 % of control and 106 % of control
T/C (endpoint: median survival time, dose: 750.0 micrograms/kg/injection, schedule: Q01DX001 (ip), vehicle: water): 90 % of control and 102 % of control
T/C (endpoint: median survival time, dose: 1500.0 micrograms/kg/injection, schedule: Q01DX001 (ip), vehicle: water): 101 % of control and 106 % of control
T/C (endpoint: median survival time, dose: 3000.0 micrograms/kg/injection, schedule: Q01DX001 (ip), vehicle: water): 94 % of control and 106 % of control
T/C (endpoint: median survival time, dose: 6000.0 micrograms/kg/injection, schedule: Q01DX001 (ip), vehicle: water): 102 % of control and 105 % of control

NC(=O)C1CC=CCC1 (stereo unspecified)
T/C [12]: 110 % of control
T/C (endpoint: mean survival time, dose: 50.0 mg/kg/injection, schedule: Q04DX002 (ip), vehicle: saline with Tween-80): 98 % of control
T/C (endpoint: mean survival time, dose: 100.0 mg/kg/injection, schedule: Q04DX002 (ip), vehicle: saline with Tween-80): 94 % of control
T/C (endpoint: mean survival time, dose: 200.0 mg/kg/injection, schedule: Q04DX002 (ip), vehicle: saline with Tween-80): 105 % of control

CC(C)(SSC(C)(C)C(N)C(=O)O)C(N)C(=O)O (stereo unspecified)
T/C [3]: 108 % of control
T/C [9]: 94 % of control
T/C [5]: 101 % of control
T/C [10]: 93 % of control
T/C [7]: 109 % of control
T/C [11]: 90 % of control

CCOC(=O)S(=O)(=O)c1ccc(C)cc1
T/C (endpoint: mean survival time, dose: 100.0 mg/kg/injection, schedule: Q01DX009 (ip), vehicle: acetone): 101 % of control
T/C (endpoint: mean survival time, dose: 200.0 mg/kg/injection, schedule: Q01DX009 (ip), vehicle: acetone): 109 % of control
T/C (endpoint: mean survival time, dose: 400.0 mg/kg/injection, schedule: Q01DX009 (ip), vehicle: acetone): 114 % of control

CC1(C)CCC23CCC4(C)C(CCC5C6(C)CCC(O)C(C)(C)C6CCC54C)C2C1OC3=O (stereo unspecified)
T/C (endpoint: mean survival time, dose: 6.25 mg/kg/injection, schedule: Q04DX002 (ip), vehicle: saline with Tween-80): 100 % of control
T/C (endpoint: mean survival time, dose: 12.5 mg/kg/injection, schedule: Q04DX002 (ip), vehicle: saline with Tween-80): 103 % of control
T/C [12]: 88 % of control and 103 % of control

CC(C)(C)NC(=O)CCC(CC(=O)NC(C)(C)C)OCc1ccccc1 (stereo unspecified)
T/C (endpoint: mean survival time, dose: 50.0 mg/kg/injection, schedule: Q01DX009 (ip), vehicle: saline with Tween-80): 100 % of control
T/C [9]: 104 % of control
T/C [4]: 101 % of control
T/C [10]: 102 % of control
T/C [6]: 106 % of control
T/C [11]: 93 % of control
T/C [8]: 93 % of control
